The values that follow come from patent publication US20260138976A1 (Hoffmann-La Roche Inc., priority 2022, published 2026).

In assay [1] the test system is primary human T-cells. Description: IL2 secretion measurements (24 h, CD3-stimulated T-cells, PBS counter screen). It counts as cell-based. The following applies: for Emax IL2 (% activation): CD3 condition, normalised to DMSO (neutral) and 20 μM reference compound A1 = 100%; for EC50: CD3-stimulated primary human T-cells, IL2 secretion, fitted sigmoidal curve, read-out: Tcell IL2 CD3 EC50. The protocol: (§1) As readouts for T-cell activation, 1L2 secretion after 24 hours and proliferation after 5 days was measured. Increases in IL2 secretion and proliferation upon compound treatment were assessed as the % of the maximum of reference compound A1. WO 2016/139181 discloses reference compound A1 as example 70. As a counter screen and to make sure that no unwanted TCR-independent activation was triggered, PBS conditions were run for all compounds.
Expanded primary human T-cells were thawed and cultured in RPMI 1640 (Gibco, #61870-010)+5% human serum (HS, Sigma, #H3667)+1 mM Sodium Pyruvate (Gibco, #11360-039)+50 μM 2-mercaptoethanol (Gibco, #31350-010) and 1× Pen-Strep (Life Technologies, #15140122) medium at density of 2 Mio/ml for 3 hours in 5% CO2, 37° C. and 95% humidity. For coating of plates, […] or PBS++ with CD3 antibody (concentration depending on donor and determined by CD3 titrations) was added 100 μl/well to Poly-D Lysine coated 96-well plates. Plates were sealed and incubated at room temperature for 3 hours on a table-top rocking platform. After incubation, plates were washed once with PBS−− and filled with 40 μl/well culture medium only. Compounds were then added (see next section) to medium only plates. After 3 hours of culturing the T-cells, cells were filtered through a cell strainer (Miltenyi Biotech, #130-041-407), counted again and concentration was adjusted to 1.25 Mio/ml.
Cells were then seeded 80 μl/well to the 40 μl/well including dispensed compounds according to plate layout. By adding cells, compounds were further diluted 1:3, and resulting in 100 k cells/120 μl/well. After 24 hours 40 μl of supernatant was collected carefully from the top while not disturbing the cells and transferred into a round bottom 96 well plate. Collected and frozen supernatant was used for detection of IL2 using the IL-2 Human ProQuantum Immunoassay Kit (Invitrogen) or using the Human IL-2 ELISA Kit (Thermo Fisher).
(§2) Compounds were added in a 5 or 6 pt dose response with the Tecan D300e Digital Dispenser, all conditions 3 times more concentrated than the end-concentration, since cells are added afterwards (80 μl cells to 40 μl prepared medium with treatment). The DR was starting at 20 μM or 10 μM final top concentration and a dilution factor of 3.333. The positive control was the reference compound A1 that was added in a dose response as well, additionally to 3 wells of only 20 μM representing the positive stimulator control. All wells were normalized with DMSO to a final concentration of 0.6% (0.2% end-concentration).
The immunoassay is done following the manufacturer's manual (Invitrogen, #A35603). Additional information: For the immunoassay, MicroAmp™ EnduraPlate™ Optical 384-Well plates are used. Frozen supernatant is thawed and centrifuged for 5 minutes at 1000×g, both steps at 4° C. After centrifugation, required sample amount is taken from the top, and in a separate LightCycler V-bottom plate (working plate) diluted with assay dilution buffer, dilution factor depending on the PBS or CD3 condition but at least 1:3. IL-2 standard and blanks are prepared in the same V-bottom plate, standard with a range of 0.0128-5000 pg/ml (extended version). After preparation, 5 μl of sample dilutions or standard/blanks are transferred to the optical 384-well plate (assay plate) and the 10 μl reaction protocol is being followed. For measurement, the QuantStudio 12K Flex system is used. Raw data is extracted and IL-2 concentrations are calculated with the Thermo Fisher online app (apps.thermofisher.com/apps/proquantum).
ELISA is done following the manufacturer's manual (Thermo Fisher Scientific, #88-7025-88). Additional information: For the ELISA Nunc MaxiSorp 96 well plates are used. Frozen supernatant is thawed and centrifuged for 5 minutes at 1000×g, both steps at 4° C. […]

In assay [2] the test system is primary human T-cells. Description: Proliferation assay (5 days, CellTiter-Glo, CD3-stimulated T-cells). It counts as cell-based. The following applies: for Emax proliferation (% activation): CD3 condition, normalised to DMSO (neutral) and 20 μM reference compound A1 = 100%; for EC50: CD3-stimulated primary human T-cells, 5 days, CellTiter-Glo, fitted sigmoidal curve, read-out: Tcell Proliferation CD3 EC50. The protocol: as §1
Expanded primary human T-cells are thawed and cultured in RPMI 1640 (Gibco, #61870-010)+5% human serum (HS, Sigma, #H3667)+1 mM Sodium Pyruvate (Gibco, #11360-039)+50 μM 2-mercaptoethanol (Gibco, #31350-010) and 1× Pen-Strep (Life Technologies, #15140122) medium at density of 2 Mio/ml for 3 hours in 5% CO2, 37° C. and 95% humidity. For coating of plates, PBS++ only or PBS++ with CD3 antibody (concentration depending on donor and determined by CD3 titrations) is added 100 μl/well to Poly-D Lysine coated 96-well plates. Plates are sealed and incubated at room temperature for 3 hours on a table-top rocking platform. After incubation, plates are washed once with PBS−− and filled with 40 μl/well culture medium only. Compounds are then added (see next section) to medium only plates. After 3 hours of culturing the T-cells, cells are filtered through a cell strainer (Miltenyi Biotech, #130-041-407), counted again and concentration is adjusted to 1.25 Mio/ml.
Cells are then seeded 80 μl/well to the 40 μl/well including dispensed compounds according to plate layout. By adding cells, compounds are further diluted 1:3, and resulting in 100 k cells/120 μl/well. After 48 hours 40 μl of supernatant is collected carefully from the top while not disturbing the cells. Cells are assessed for proliferation 5 days later by measuring […] using CellTiterGlo (Promega).
as §2
After 5 days, for detection of ATP which is directly proportional to the number of cells present per well, the CellTiter-Glo® 2.0 Reagent is used. After visual control for toxicity or precipitations of the tested compounds, the plates are equilibrated to room temperature for 45 minutes. CellTiter-Glo® 2.0 Reagent is equilibrated to room temperature as well. After equilibration, an equal amount of CellTiter-Glo reagent is added to the cells (80 μl/well) with an electronic multichannel pipette. Plates are placed on a rocking platform for 15 minutes at room temperature. After incubation, the bottom of the plates is sealed with backing tape. Luminescence is measured with PHERAstar FSX (interval time 0.5 sec, gain 3000, focal height 15 mm) and exported as CSV file for analysis in Genedata screener.
CD3 and PBS plates were analysed separately in Genedata Screener using Roche Normalization PCT_POS_CTRL with DMSO set as Neutral Control and 20 μM of the reference compound A1 set as Stimulator Control/100%.
For CD3 conditions EC50 and Emax of the fitted sigmoidal curve were reported. If no curve could be fitted, the EC50 was reported as blank field and the Emax was based on individual data points. […] Compounds which activate unstimulated cells (see IL2 measurements) or compounds which negatively affected viability were flagged.

Molecules are shown by their SMILES.

As to `CC(C)(C#N)c1nnc(-c2ccc3c(c2)N(Cc2ccc(-c4ccc(C(F)F)cn4)cc2)C(=O)[C@@H](N)CS3(=O)=O)o1` [Example 40, 2-[5-[(3R)-3-amino-5-[[4-[5-(difluoromethyl)-2-pyridyl]phenyl]methyl]-1,1,4-trioxo-2,3-dihydro-1λ^6,5-benzothiazepin-7-yl]-1,3,4-oxadiazol-2-yl]-2-methyl-propanenitrile], the “Emax IL2 (% activation)” value in the assay on primary human T-cells [1] came out at 105 % activation. Also, the EC50 with primary human T-cells [1] (Homo sapiens, T-cell) is 3790 nM; with primary human T-cells [2] (Homo sapiens, T-cell, 120 h) it was 2480 nM. In the assay on primary human T-cells [2], the “Emax proliferation (% activation)” value was determined as 118 % activation.

As to `CC(C)(C)c1nnc(-c2ccc3c(c2)N(Cc2ccc(-c4cc(C(F)(F)F)no4)cc2)C(=O)[C@@H](N)CS3(=O)=O)o1` [Example 31, (3R)-3-amino-7-(5-tert-butyl-1,3,4-oxadiazol-2-yl)-1,1-dioxo-5-[[4-[3-(trifluoromethyl)isoxazol-5-yl]phenyl]methyl]-2,3-dihydro-1λ^6,5-benzothiazepin-4-one], the “Emax IL2 (% activation)” value in the assay on primary human T-cells [1] amounted to 133 % activation. Moreover, the EC50 in the assay with primary human T-cells [1] (Homo sapiens, T-cell) is 906 nM; in the assay on primary human T-cells [2] (Homo sapiens, T-cell, 120 h), 349 nM. Further, in the assay on primary human T-cells [2], the “Emax proliferation (% activation)” value stood at 83 % activation.

`COC(=O)N1CC2CC(c3nnc(-c4ccc5c(c4)N(Cc4ccc(-c6noc(C(F)(F)F)n6)cc4)C(=O)[C@@H](N)CS5(=O)=O)o3)(C2)C1` [Example 61, methyl 1-[5-[(3R)-3-amino-1,1,4-trioxo-5-[[4-[5-(trifluoromethyl)-1,2,4-oxadiazol-3-yl]phenyl]methyl]-2,3-dihydro-1λ^6,5-benzothiazepin-7-yl]-1,3,4-oxadiazol-2-yl]-3-azabicyclo[3.1.1]heptane-3-carboxylate]: in the assay with primary human T-cells [1], the EC50 amounted to 606 nM and the “Emax IL2 (% activation)” value came to 241 % activation. Besides, in the assay with primary human T-cells [2], the EC50 was 216 nM and the “Emax proliferation (% activation)” value turned out to be 228 % activation.

Take `COC(F)(c1nnc(-c2ccc3c(c2)N(Cc2ccc(-c4nnc(C(F)(F)F)o4)cc2)C(=O)[C@@H](N)CS3(=O)=O)o1)C(F)(F)F` (stereo partly drawn) [Example 67, (3R)-3-amino-1,1-dioxo-7-[5-(1,2,2,2-tetrafluoro-1-methoxy-ethyl)-1,3,4-oxadiazol-2-yl]-5-[[4-[5-(trifluoromethyl)-1,3,4-oxadiazol-2-yl]phenyl]methyl]-2,3-dihydro-1λ^6,5-benzothiazepin-4-one]: the “Emax IL2 (% activation)” value in the assay with primary human T-cells [1] was found to be 168 % activation. Moreover, the EC50 came to 739 nM with primary human T-cells [1] (Homo sapiens, T-cell) and 262 nM in the assay with primary human T-cells [2] (Homo sapiens, T-cell, 120 h). Also, the “Emax proliferation (% activation)” value in the assay on primary human T-cells [2] is 119 % activation.

In the case of `N[C@H]1CS(=O)(=O)c2ccc(-c3nnc(N4CCOC(F)(F)C4)o3)cc2N(Cc2ccc(-c3nnc(C(F)F)o3)cc2)C1=O` [Example 82, (3R)-3-amino-5-[[4-[5-(difluoromethyl)-1,3,4-oxadiazol-2-yl]phenyl]methyl]-7-[5-(2,2-difluoromorpholin-4-yl)-1,3,4-oxadiazol-2-yl]-1,1-dioxo-2,3-dihydro-1λ^6,5-benzothiazepin-4-one], in the assay with primary human T-cells [1], the “Emax IL2 (% activation)” value came out at 25 % activation. Further, the EC50 was greater than 10000 nM in the assay on primary human T-cells [1] (Homo sapiens, T-cell) and 6120 nM in the assay on primary human T-cells [2] (Homo sapiens, T-cell, 120 h). The “Emax proliferation (% activation)” value with primary human T-cells [2] came to 78 % activation.

Consider `CC(C)(C)c1nnc(-c2ccc3c(c2)N(Cc2ccc(-c4nc(C5CC5)no4)cc2)C(=O)[C@@H](N)CS3(=O)=O)o1` [Example 29, (3R)-3-amino-7-(5-tert-butyl-1,3,4-oxadiazol-2-yl)-5-[[4-(3-cyclopropyl-1,2,4-oxadiazol-5-yl)phenyl]methyl]-1,1-dioxo-2,3-dihydro-1λ^6,5-benzothiazepin-4-one], for which, in the assay on primary human T-cells [1], the “Emax IL2 (% activation)” value turned out to be 156 % activation. Also, the EC50 in the assay with primary human T-cells [1] (Homo sapiens, T-cell) was 956 nM; with primary human T-cells [2] (Homo sapiens, T-cell, 120 h), 844 nM. Besides, in the assay on primary human T-cells [2], the “Emax proliferation (% activation)” value was 208 % activation.

As for `N[C@H]1CS(=O)(=O)c2ccc(-c3nnc(C4(N)CC(F)(F)C4)o3)cc2N(Cc2ccc(-c3ccc(OC(F)(F)F)cn3)cc2)C1=O` [Example 179], in the assay on primary human T-cells [2], the “Emax proliferation (% activation)” value was determined as 106 % activation. Besides, in the assay on primary human T-cells [2] (Homo sapiens, T-cell, 120 h), the EC50 worked out at 936 nM.

Regarding `N#CC1(c2nnc(-c3ccc4c(c3)N(Cc3ccc(-c5ccc(OC(F)(F)F)cn5)cc3)C(=O)[C@@H](N)CS4(=O)=O)o2)CCOC1` (stereo partly drawn) [Example 177, 3-[5-[(3R)-3-amino-1,1,4-trioxo-5-[[4-[5-(trifluoromethoxy)-2-pyridyl]phenyl]methyl]-2,3-dihydro-1λ^6,5-benzothiazepin-7-yl]-1,3,4-oxadiazol-2-yl]tetrahydrofuran-3-carbonitrile], the “Emax proliferation (% activation)” value in the assay with primary human T-cells [2] was found to be 101 % activation. Also, the EC50 in the assay with primary human T-cells [2] (Homo sapiens, T-cell, 120 h) is 806 nM.

On to `CC(C)(C#N)c1nnc(-c2ccc3c(c2)N(Cc2ccc(-c4nc(C5CC5)no4)cc2)C(=O)[C@@H](N)CS3(=O)=O)o1` [Example 139, 2-[5-[(3R)-3-amino-5-[[4-(3-cyclopropyl-1,2,4-oxadiazol-5-yl)phenyl]methyl]-1,1,4-trioxo-2,3-dihydro-1λ^6,5-benzothiazepin-7-yl]-1,3,4-oxadiazol-2-yl]-2-methyl-propanenitrile], for which the “Emax proliferation (% activation)” value with primary human T-cells [2] came to 93 % activation. In addition, the EC50 in the assay on primary human T-cells [2] (Homo sapiens, T-cell, 120 h) was 1020 nM.

Consider `CN1CCC(C#N)(c2nnc(-c3ccc4c(c3)N(Cc3ccc(-c5ccc(OC(F)(F)F)cn5)cc3)C(=O)[C@@H](N)CS4(=O)=O)o2)CC1` [Example 180, 4-[5-[(3R)-3-amino-1,1,4-trioxo-5-[[4-[5-(trifluoromethoxy)-2-pyridyl]phenyl]methyl]-2,3-dihydro-1λ^6,5-benzothiazepin-7-yl]-1,3,4-oxadiazol-2-yl]-1-methyl-piperidine-4-carbonitrile], for which, in the assay with primary human T-cells [2], the “Emax proliferation (% activation)” value was found to be 102 % activation. Moreover, the EC50 in the assay with primary human T-cells [2] (Homo sapiens, T-cell, 120 h) was 651 nM.
